The results in this text go back to patent US10787430B2, “Hemoglobin modifier compounds and uses thereof” (FronThera U.S. Pharmaceuticals LLC, priority 2016, dated 2020).

pIC50: −log10 of the molar value. Some results are limits rather than exact numbers.

Data set [1] concerns the target T1, hemoglobin (20% hct blood) (Homo sapiens, UniProt P68871+P69905).
T1 construct: Normal whole blood was collected from adult healthy donors; from tissue; host or cells: normal human whole blood (red blood cells), adult healthy donors
Kind of data set: Dose-dependent whole blood OEC studies. Type of data set: cell-based. To be noted: 37° C., 1 hr; for delta p50 0.2 mM: 0.2 mM compound; for delta p50 0.5 mM: 0.5 mM compound. Summed up:
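Human whole blood at 20% hct shaken with 0.2, 0.5 or 1 mM compound at 37° C. for 1 hr; DMSO (1%) vehicle control. Oxygen equilibrium curves gave pO2 and Hb oxygen saturation (sO2), reported as delta p50%.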

Data set [2] has as its system sickled HbSS whole blood (RBC sickling). Kind of data set: Anti-sickling assay in HbSS sickled blood under hypoxic induction. Type of data set: cell-based, human. To be noted: HbSS whole blood 26% Hct, 20 mins hypoxic induction; 0.2 mM compounds (FIG. 2). On the procedure: Materials: • Blood collected after informed consent from sickle cell individuals. • HBS buffer: 10 mM HEPES, 145 mM NaCl, pH 7.4 • Hemox buffer: Buffer provided for the hemox analyzer • Control Compound stock solution in DMSO (50 mM) stored at RT • Control Compound work solution (CWS): 10 μl of DMSO was added by Hamilton to 90 μl of HBS buffer (20 mM Hepes, 145 mM NaCl, pH 7.4) to create a working solution with a final concentration of 5 mM drug and 10% DMSO). • Compound stock solution in DMSO (50 mM) stored at RT • Compound work solution (WS): 10 μl of DMSO was added by Hamilton to 90 μl of HBS buffer (20 mM Hepes, 145 mM NaCl, pH 7.4) to create a working solution with a final concentration of 5 mM drug and 10% DMSO). • DMSO buffer: 10% DMSO (DB), same as WS but without drug. This will be used to maintain DMSO the same for different drug incubations. Test Protocol:
Collect blood from Clinic: Blood were collected after informed consent according to an approved IRB protocol. • Run Advia 120 analysis on SCD blood, to determine Hct. • Dilute blood to 20% Hct with HBS to total volume of 3 ml. • This cell suspension (CS) will be used for all experiments.
Incubation • 1. 200 μl CS • 2. 200 μl CS+20 μl CWS (5 mM diluted 10 times=0.5 mM control final)−(1% DMSO) • 3. 200 μl CS+20 μl WS (5 mM diluted 10 times=0.5 mM control final)−(1% DMSO) • 4. 200 μl CS+8 μl WS (0.2 mM drug final)+DB−(1% DMSO) • Incubate 30 minutes at 37° C.
50 μl into 1 ml HBS+2% BSA buffer. Eight time points (0-20 minutes) at 2% oxygen, 10,000 events each)
The sickling runs provide sets samples that need to be run on the AMNIS image flow and are subsequently analyzed with pixel analysis software.
Drug was provided at 50 mM concentration in DMSO, and stored at room temperature until use. 10 μl of DMSO was added by Hamilton to 90 μl of HBS buffer (20 mM Hepes, 145 mM NaCl, pH 7.4) to create a working solution with a final concentration of 5 mM drug and 10% DMSO). Blood was collected from a sickle cell patient in EDTA anticoagulant. To 200 μl of whole blood, a 20 or 8 μl of working solution was added resulting in a final drug concentration of 0.5 mM or 0.2 mM respectively. The DMSO concentration in both was corrected to 1%. The final hematocrit was measured by ADVIA analysis to be 26%. […] The delta hemox (%) comparing Example 29e with GBT440 is shown in FIG. 1A (0.2 mM) and FIG. 1B (0.5 mM).
Anti-sickling is shown in FIG. 2 with M: maximum percentage of sickled cells during 20 mins of hypoxic induction, T: time needed to reach 50% of M, and Z: baseline percentage of sickled cells prior to hypoxic induction.

In the next data set the target is T2, CYP1A2 (Homo sapiens, UniProt P05177).
T2 construct: from tissue; host or cells: human liver microsomes
T2 sequence (P05177 1-516): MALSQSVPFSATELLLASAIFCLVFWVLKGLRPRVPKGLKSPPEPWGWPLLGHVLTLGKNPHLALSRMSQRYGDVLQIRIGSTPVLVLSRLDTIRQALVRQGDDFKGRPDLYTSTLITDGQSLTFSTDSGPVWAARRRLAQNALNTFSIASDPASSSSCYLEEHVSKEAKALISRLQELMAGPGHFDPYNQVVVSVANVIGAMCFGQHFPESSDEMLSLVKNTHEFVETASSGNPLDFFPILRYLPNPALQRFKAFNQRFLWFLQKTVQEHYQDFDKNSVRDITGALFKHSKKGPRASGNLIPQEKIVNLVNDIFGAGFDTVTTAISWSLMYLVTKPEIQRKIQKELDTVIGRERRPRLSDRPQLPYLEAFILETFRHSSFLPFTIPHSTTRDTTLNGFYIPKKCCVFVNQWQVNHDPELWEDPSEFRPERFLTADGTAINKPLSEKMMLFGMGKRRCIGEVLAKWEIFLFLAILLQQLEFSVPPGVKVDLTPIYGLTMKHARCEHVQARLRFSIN
Kind of data set: CYP inhibition evaluation in human liver microsomes. The format is in vitro ADME. The text has this:
(§1) Example A5: CYP Inhibition Evaluation in Human Liver Microsomes
For orientation: Liver microsomes are vesicles of endoplasmic reticulum, rich in cytochrome P450 enzymes.

The target of the next data set is T3, CYP2C19 (Homo sapiens, UniProt P33261).
T3 construct: from tissue; host or cells: human liver microsomes
Described as above. Type of data set: in vitro ADME.
Source text: as §1

In a further data set the target is T4, CYP2C8 (Homo sapiens, UniProt P10632).
T4 construct: from tissue; host or cells: human liver microsomes
T4 sequence (P10632 1-490): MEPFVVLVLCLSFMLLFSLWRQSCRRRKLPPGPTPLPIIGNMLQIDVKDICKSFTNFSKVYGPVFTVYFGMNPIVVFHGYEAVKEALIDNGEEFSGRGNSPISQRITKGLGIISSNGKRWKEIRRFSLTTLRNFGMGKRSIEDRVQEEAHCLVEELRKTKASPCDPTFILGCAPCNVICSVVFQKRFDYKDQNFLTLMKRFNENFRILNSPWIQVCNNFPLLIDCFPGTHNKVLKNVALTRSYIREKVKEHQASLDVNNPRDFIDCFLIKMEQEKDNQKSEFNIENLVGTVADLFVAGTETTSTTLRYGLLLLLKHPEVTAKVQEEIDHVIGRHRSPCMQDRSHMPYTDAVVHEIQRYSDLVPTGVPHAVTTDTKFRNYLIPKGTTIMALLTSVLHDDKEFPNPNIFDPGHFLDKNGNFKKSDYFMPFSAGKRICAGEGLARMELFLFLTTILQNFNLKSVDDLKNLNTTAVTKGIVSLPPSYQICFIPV
The data set is described as above. The format is in vitro ADME.
Source text: as §1

A further data set addresses T5, CYP2C9 (Homo sapiens, UniProt P11712).
T5 construct: from tissue; host or cells: human liver microsomes
The data set is described as above. Type of data set: in vitro ADME.
Source text: as §1

A further data set has as its target T6, CYP2D6 (Homo sapiens, UniProt P10635).
T6 construct: from tissue; host or cells: human liver microsomes
The data set is described as above. Type of data set: in vitro ADME.
Source text: as §1

The target in the next data set is T7, CYP3A4-M (Homo sapiens, UniProt P08684).
T7 construct: from tissue; host or cells: human liver microsomes
The description is as above. The format is in vitro ADME.
Source text: as §1

Data set [3] is described as follows: Microsome stability evaluation in rat liver microsomes. The format is in vitro ADME. To be noted: read-out: Rat microsome, t½. The text has this: (§2) Example A6: Microsome Stability Evaluation in Human and Rat Liver Microsomes
A short description of data set [4]: Microsome stability evaluation in human liver microsomes. Type of data set: in vitro ADME. To be noted: read-out: Human microsome, t½.
Source text: as §2

T5 sequence (P11712 whole entry): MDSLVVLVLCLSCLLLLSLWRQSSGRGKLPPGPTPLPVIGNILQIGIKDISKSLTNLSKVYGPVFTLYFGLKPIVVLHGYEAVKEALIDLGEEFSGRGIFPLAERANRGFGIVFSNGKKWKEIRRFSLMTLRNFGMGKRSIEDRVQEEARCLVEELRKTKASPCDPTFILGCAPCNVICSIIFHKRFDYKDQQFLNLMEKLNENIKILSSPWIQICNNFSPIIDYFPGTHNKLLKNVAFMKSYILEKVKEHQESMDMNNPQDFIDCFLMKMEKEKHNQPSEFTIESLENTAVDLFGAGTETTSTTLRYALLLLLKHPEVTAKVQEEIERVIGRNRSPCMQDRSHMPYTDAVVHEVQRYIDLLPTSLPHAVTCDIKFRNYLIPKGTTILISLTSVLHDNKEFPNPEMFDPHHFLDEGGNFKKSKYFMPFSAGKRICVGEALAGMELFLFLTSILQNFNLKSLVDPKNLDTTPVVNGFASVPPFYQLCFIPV
T1 sequence (P69905 2-142 limits assumed): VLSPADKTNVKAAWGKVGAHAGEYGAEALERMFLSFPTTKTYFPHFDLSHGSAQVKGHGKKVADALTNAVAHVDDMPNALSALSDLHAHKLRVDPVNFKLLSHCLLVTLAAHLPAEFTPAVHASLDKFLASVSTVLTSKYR
T1 sequence (P68871 2-147 limits assumed): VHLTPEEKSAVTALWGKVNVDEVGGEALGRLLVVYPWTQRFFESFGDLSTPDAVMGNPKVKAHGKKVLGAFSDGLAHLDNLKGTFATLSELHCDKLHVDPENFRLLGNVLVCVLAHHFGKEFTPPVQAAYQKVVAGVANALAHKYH
T3 sequence (P33261 whole entry): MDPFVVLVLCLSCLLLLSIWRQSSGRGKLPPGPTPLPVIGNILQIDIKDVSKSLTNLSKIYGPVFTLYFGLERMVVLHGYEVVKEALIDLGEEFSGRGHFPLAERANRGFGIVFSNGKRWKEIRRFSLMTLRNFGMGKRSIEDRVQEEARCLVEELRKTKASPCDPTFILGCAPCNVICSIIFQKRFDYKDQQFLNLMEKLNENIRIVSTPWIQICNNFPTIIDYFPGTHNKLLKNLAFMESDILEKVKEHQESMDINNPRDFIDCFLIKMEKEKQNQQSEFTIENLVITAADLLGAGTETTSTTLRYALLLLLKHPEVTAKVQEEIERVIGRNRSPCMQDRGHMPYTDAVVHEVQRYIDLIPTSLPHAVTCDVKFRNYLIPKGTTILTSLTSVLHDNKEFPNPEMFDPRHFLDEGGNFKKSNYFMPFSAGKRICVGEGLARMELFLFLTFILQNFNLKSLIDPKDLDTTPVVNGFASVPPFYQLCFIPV
T6 sequence (P10635 whole entry): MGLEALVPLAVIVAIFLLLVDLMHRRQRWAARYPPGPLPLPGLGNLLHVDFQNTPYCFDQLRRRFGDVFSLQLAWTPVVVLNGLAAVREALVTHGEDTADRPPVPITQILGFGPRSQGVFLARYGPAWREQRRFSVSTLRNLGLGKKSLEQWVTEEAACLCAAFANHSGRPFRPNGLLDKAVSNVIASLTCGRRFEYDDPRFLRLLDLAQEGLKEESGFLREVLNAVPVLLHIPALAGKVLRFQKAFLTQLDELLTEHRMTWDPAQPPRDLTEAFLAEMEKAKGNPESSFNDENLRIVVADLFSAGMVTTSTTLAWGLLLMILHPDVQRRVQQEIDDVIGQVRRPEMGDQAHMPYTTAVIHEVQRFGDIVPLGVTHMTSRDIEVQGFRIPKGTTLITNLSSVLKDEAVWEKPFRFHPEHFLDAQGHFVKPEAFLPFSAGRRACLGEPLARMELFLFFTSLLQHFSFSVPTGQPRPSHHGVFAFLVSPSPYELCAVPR
T7 sequence (P08684 whole entry): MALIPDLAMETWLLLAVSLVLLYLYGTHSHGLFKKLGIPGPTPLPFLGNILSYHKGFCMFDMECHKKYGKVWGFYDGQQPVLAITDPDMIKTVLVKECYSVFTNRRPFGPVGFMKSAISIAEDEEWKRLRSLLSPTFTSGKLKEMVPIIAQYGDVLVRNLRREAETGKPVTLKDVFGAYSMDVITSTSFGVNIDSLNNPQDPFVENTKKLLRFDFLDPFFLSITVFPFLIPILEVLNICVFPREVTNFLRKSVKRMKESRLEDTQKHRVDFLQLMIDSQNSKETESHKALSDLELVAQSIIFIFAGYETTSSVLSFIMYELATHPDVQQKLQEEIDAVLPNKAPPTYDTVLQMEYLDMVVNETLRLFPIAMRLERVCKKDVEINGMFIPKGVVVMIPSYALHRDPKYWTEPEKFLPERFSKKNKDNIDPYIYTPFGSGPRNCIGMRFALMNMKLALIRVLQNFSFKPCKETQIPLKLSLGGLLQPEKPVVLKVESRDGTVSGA

Broadly, the pIC50 is −log10 of the IC50, conventionally taken in molar units. High values mean a low IC50, low ones a high IC50. Take `[2H]C([2H])(Oc1cc(F)cc(O)c1C=O)c1cccnc1-c1ccnn1C(C)C` [Example 27b, 4-fluoro-2-hydroxy-6-((2-(1-isopropyl-1H-pyrazol-5-yl)pyridin-3-yl)methoxy-d2)benzaldehyde]: the “delta p50 0.2 mM” value in [1] was −18.8%. Further, the “delta p50 0.5 mM” value in [1] is recorded as −56.6%. In [2], the “Reduction in % sickled cells compared to untreated” value (“Reduction in % sickled cells” below) is −30.8%. The pIC50 against CYP1A2 was 4.66; against CYP2C19 it was 5.21; on CYP2C8, 5.43; on CYP2C9, 4.96; at CYP2D6, < 4.52; on CYP3A4-M, 5.00. The values for the half-life in [3] and in data set [4] were 19 min and 24 min, respectively.
With `[2H]C([2H])(Oc1cccc(O)c1C=O)c1cccnc1-n1ccnc1C(C)C` [Example 29e, 2-hydroxy-6-((2-(2-isopropyl-1H-imidazol-1-yl)pyridin-3-yl)methoxy-d2)benzaldehyde], the “delta p50 0.2 mM” value in data set [1] is listed as −24.9%. Moreover, in [1], the “delta p50 0.5 mM” value is given as −66.1%. The “Reduction in % sickled cells” value in data set [2] was −27.1%. In addition, the pIC50 against CYP1A2 was < 4.30; against CYP2C19, 4.71; against CYP2C8 it was < 4.30; against CYP2C9, 4.44; on CYP2D6, < 4.30; against CYP3A4-M, < 4.30. For the same molecule, the half-life in data set [3] and in data set [4] was 11 min in each case.
Regarding `CC(C)n1nccc1-c1ncccc1COc1cccc(O)c1C=O` [GBT440, reference compound], the “delta p50 0.2 mM” value in data set [1] is given as −14.2%. In data set [1], the “delta p50 0.5 mM” value is given as −35.1%. Moreover, the “Reduction in % sickled cells” value in data set [2] is reported as −22.4%. Also, the pIC50 against CYP1A2 is 4.75; at CYP2C19, 5.15; against CYP2C8, 4.91; against CYP2C9 it was 4.55; on CYP2D6 it was < 4.52; at CYP3A4-M, < 4.52. Besides, the half-life in data set [3] turned out to be 22 min; in data set [4] it was 24 min.
